The nature of assay [1]: Growth inhibition of […] NIH3T3 cells harboring RET C634Y mutant incubated for 3 days by MTT assay. The class given is functional. The note with it: NIH3T3, 72 h; time 3 day.
The test system of assay [2] is BaF3. The format is functional. The note with it: Mus musculus, BaF3, 72 h; time 3 day.
A short description of assay [3]: Growth inhibition of human TT cells incubated for 10 days by MTT assay. The format is functional. The note with it: 240 h, time 10 day.
The subject of assay [4] is BaF3. Description: Growth inhibition of mouse BaF3 cells harboring RET M918T mutant incubated for 3 days by MTT assay. The class given is functional. The note with it: BaF3, 72 h, time 3 day.
Assay [5] relates to BaF3. Description: Growth inhibition of mouse BaF3 cells harboring RET V804M mutant incubated for 3 days by MTT assay. The format is functional. The note with it: BaF3, 72 h, time 3 day.
Assay [6] can be described thus: Growth inhibition of […] NIH3T3 cells incubated for 3 days by MTT assay. The class given is functional. The note with it: NIH3T3, 72 h; time 3 day.
The subject of assay [7] is BaF3. Put plainly: Growth inhibition of mouse BaF3 cells incubated for 3 days by MTT assay. The class given is functional. The note with it: BaF3, 72 h, time 3 day.
In assay [8] the target is Proto-oncogene tyrosine-protein kinase receptor Ret (Homo sapiens, UniProt P07949).
Sequence of Proto-oncogene tyrosine-protein kinase receptor Ret (Homo sapiens, UniProt P07949) (P07949 whole entry): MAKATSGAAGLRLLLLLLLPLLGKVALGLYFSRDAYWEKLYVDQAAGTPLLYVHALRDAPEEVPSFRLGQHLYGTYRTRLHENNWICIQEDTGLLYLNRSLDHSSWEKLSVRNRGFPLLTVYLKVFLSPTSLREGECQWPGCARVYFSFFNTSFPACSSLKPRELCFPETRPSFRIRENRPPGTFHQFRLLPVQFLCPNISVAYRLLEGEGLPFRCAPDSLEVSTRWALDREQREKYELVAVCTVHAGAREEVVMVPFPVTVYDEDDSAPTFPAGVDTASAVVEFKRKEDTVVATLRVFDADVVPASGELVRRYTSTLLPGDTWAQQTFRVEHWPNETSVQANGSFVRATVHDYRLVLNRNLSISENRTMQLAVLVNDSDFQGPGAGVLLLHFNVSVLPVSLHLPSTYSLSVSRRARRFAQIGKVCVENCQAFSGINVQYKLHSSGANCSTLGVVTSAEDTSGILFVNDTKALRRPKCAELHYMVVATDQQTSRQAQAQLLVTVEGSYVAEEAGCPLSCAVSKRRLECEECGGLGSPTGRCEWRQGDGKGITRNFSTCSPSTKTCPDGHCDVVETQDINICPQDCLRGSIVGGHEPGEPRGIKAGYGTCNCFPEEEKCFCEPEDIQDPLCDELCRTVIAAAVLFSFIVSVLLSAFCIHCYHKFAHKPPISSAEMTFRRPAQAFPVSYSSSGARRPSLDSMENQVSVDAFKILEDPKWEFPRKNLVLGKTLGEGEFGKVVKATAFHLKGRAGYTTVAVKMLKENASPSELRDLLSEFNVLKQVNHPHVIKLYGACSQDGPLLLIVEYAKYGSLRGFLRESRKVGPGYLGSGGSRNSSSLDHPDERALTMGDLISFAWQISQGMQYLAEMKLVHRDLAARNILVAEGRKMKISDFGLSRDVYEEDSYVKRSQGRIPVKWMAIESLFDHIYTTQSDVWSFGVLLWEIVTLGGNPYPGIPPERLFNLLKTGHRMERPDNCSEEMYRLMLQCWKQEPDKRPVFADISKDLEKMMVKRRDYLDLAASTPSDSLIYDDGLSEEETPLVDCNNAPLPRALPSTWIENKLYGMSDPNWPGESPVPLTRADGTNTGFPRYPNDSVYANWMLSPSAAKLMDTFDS
The target of assay [9] is Proto-oncogene tyrosine-protein kinase receptor Ret (Homo sapiens, UniProt P07949, V804M).
Sequence of Proto-oncogene tyrosine-protein kinase receptor Ret (Homo sapiens, UniProt P07949, V804M) (P07949 29-1114 V804M limits assumed): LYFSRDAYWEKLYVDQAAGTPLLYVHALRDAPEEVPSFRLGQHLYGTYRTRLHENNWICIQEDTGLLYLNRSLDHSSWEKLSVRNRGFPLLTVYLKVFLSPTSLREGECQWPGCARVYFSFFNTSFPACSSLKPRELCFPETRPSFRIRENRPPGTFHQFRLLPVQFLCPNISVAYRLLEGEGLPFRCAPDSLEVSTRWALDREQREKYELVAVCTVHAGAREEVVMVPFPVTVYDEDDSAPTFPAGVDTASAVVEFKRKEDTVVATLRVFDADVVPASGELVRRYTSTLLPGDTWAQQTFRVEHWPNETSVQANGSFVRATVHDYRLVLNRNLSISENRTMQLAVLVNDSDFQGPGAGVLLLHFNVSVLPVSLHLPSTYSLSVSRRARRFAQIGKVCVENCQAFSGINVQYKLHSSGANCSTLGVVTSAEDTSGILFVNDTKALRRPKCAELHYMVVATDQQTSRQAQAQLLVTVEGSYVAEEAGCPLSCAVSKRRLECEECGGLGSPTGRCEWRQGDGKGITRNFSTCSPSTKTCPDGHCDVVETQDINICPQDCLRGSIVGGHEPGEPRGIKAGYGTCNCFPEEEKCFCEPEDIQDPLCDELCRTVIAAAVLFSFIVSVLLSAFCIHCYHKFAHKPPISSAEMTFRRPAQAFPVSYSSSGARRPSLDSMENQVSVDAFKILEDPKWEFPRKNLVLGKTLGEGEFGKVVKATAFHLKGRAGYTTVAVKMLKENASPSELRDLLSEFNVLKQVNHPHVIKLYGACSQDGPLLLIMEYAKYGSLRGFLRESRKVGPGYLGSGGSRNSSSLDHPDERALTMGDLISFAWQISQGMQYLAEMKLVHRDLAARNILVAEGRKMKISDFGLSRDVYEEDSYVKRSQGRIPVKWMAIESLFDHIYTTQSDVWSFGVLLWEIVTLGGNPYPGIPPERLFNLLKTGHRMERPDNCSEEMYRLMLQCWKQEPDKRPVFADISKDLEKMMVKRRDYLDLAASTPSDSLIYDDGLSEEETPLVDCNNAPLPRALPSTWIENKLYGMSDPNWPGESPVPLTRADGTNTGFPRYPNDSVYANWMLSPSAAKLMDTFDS
Assay [10] has as its system BaF3. Put plainly: Growth inhibition of mouse BaF3 cells over expressing wild type RET incubated for 3 days by MTT assay. The class given is functional. The note with it: BaF3, 72 h, time 3 day.

For the compound `CC(C)(C)c1cc(NC(=O)Nc2ccc(Nc3ncnc4c3OCCN4)c(O)c2)no1`, the GI50 is 1.55 µM in assay [1]; 6.02 µM in assay [2]; 0.8 µM in assay [3]; 8.81 µM in assay [4]; 1.87 µM in assay [5]; over 10 µM in [6]. Moreover, the figures for the 50% growth inhibitory concentration (GI50) in assay [7] and in assay [10] were over 10 µM and 3.37 µM, respectively. For the same compound, the IC50 in assay [8] was found to be 0.025 µM; in [9] it was 0.063 µM.

Turning to `COc1cc(NC(=O)Nc2cc(C(C)(C)C)on2)ccc1Nc1ncnc2c1OCCN2`, the GI50 in [1] is 2.7 µM; in assay [2], over 10 µM; in assay [3] it was 3.03 µM; in [4] it was over 10 µM; in [5] it was over 10 µM; in assay [6] it was over 10 µM. The GI50 was over 10 µM in assay [7] and 4.7 µM in [10]. Further, the IC50 in [8] is 0.022 µM; in assay [9], 0.033 µM.

For the compound `O=C(Nc1ccc(Nc2ncnc3c2OCCN3)cc1)Nc1cc(Cl)cc(Cl)c1`, the GI50 was 8.05 µM in [1]; over 10 µM in assay [2]; over 10 µM in assay [3]; over 10 µM in assay [4]; over 10 µM in assay [5]; over 10 µM in assay [6]. Also, the GI50 in assay [7] was 10 µM; in assay [10], over 10 µM. The 50% inhibitory concentration (IC50) was 0.865 µM in assay [8] and 1.3 µM in assay [9].

Turning to `CC(C)(C)c1csc(NC(=O)Nc2ccc(Nc3ncnc4c3OCCN4)cc2)n1`, the GI50 in assay [1], in assay [2], in [3], in assay [4], in assay [5] and in [6] was over 10 µM each time. The GI50 in assay [7] and in [10] was over 10 µM throughout. The IC50 in [8] worked out at 3.15 µM; in [9], 5.17 µM.

Regarding `COc1cc2/c(=N/c3ccc(Br)cc3F)nc[nH]c2cc1OCC1CCN(C)CC1` [VANDETANIB], the GI50 was 0.34 µM in assay [1]; over 10 µM in assay [2]; 0.14 µM in assay [3]; 0.97 µM in assay [4]; over 10 µM in [5]; 7.15 µM in assay [6]. Also, the GI50 in assay [7] was determined as 8.41 µM; in assay [10], 0.46 µM.

With `O=C(Nc1ccc(Nc2ncnc3c2OCCN3)cc1)Nc1cccc(-c2ccccc2)c1`, the GI50 in assay [1] is 10 µM; in assay [2] it was over 10 µM; in assay [3], over 10 µM; in [4], over 10 µM; in assay [5] it was over 10 µM; in [6], over 10 µM. The GI50 in assay [7] and in assay [10] was over 10 µM throughout. For the same compound, the IC50 was over 10 µM in assay [8] and 7.59 µM in [9].

`O=C(Nc1ccc(Cl)cc1)Nc1ccc(Nc2ncnc3c2OCCN3)cc1`: the GI50 in assay [1], in [2], in [3], in assay [4], in assay [5] and in assay [6] was over 10 µM throughout. Also, the GI50 in assay [7] and in assay [10] was over 10 µM in each case. Besides, the IC50 came to 3.07 µM in assay [8] and 2.28 µM in assay [9].

As for `CC(C)(C)c1cc(NC(=O)Nc2ccc(Nc3ncnc4c3OCCN4)cc2F)no1`, the GI50 in assay [1] was 0.13 µM; in assay [2] it was 5.23 µM; in [3] it was 0.08 µM; in assay [4] it was 0.59 µM; in [5] it was 4.72 µM; in assay [6], over 10 µM. For the same compound, the results for the GI50 in assay [7] and in assay [10] were over 10 µM and 0.09 µM, respectively. For the same compound, the IC50 in assay [8] was found to be 0.01 µM; in assay [9], 0.057 µM.

With `Cc1ccc(F)c(NC(=O)Nc2ccc(Nc3ncnc4c3OCCN4)cc2)c1`, the GI50 was 10 µM in [1]; over 10 µM in assay [2]; 5.82 µM in [3]; over 10 µM in assay [4]; over 10 µM in assay [5]; over 10 µM in assay [6]. In addition, the GI50 in assay [7] and in [10] was over 10 µM each time. Further, the IC50 came to 1.47 µM in assay [8] and 5.11 µM in assay [9].

As for `O=C(Nc1ccc(Br)cc1)Nc1ccc(Nc2ncnc3c2OCCN3)cc1`, the concentration for 50% growth inhibition (GI50) in [1] is 8.92 µM; in assay [2], over 10 µM; in assay [3], 10 µM; in assay [4], over 10 µM; in [5], over 10 µM; in [6], over 10 µM. Besides, the GI50 in assay [7] is 10 µM; in [10], over 10 µM. Also, the IC50 was determined as 2.22 µM in assay [8] and 2.35 µM in [9].

Turning to `COc1ccc(NC(=O)Nc2ccc(Nc3ncnc4c3OCCN4)cc2)cc1`, the GI50 in assay [1] is over 10 µM; in assay [2], over 10 µM; in assay [3], 6.12 µM; in [4] it was over 10 µM; in assay [5], over 10 µM; in assay [6], over 10 µM. Further, the GI50 in assay [7] and in assay [10] was over 10 µM in each case. Moreover, the figures for the half-maximal inhibitory concentration (IC50) in assay [8] and in [9] were 0.227 µM and 0.824 µM, respectively.

As for `CC(C)(C)c1cc(NC(=O)Nc2ccc(Nc3ncnc4c3OCCN4)c(F)c2)no1`, the GI50 in assay [1] is 0.39 µM; in assay [2], 3.49 µM; in assay [3] it was 0.3 µM; in [4] it was 2.94 µM; in assay [5], 1.53 µM; in assay [6], over 10 µM. In addition, the GI50 in assay [7] was found to be 10 µM; in [10] it was 0.33 µM. In addition, the IC50 in [8] stood at 0.021 µM; in assay [9], 0.022 µM.

As for `CC(C)(C)c1cc(NC(=O)Nc2ccc(Nc3ncnc4c3OCCN4)nc2)no1`, the concentration for 50% growth inhibition (GI50) in assay [1] was 10 µM; in assay [2] it was over 10 µM; in assay [3], 2.56 µM; in assay [4] it was over 10 µM; in assay [5], over 10 µM; in assay [6] it was over 10 µM. The GI50 was over 10 µM in assay [7] and 4.12 µM in [10]. The IC50 in assay [8] turned out to be 0.077 µM; in [9] it was 0.18 µM.

On to `COc1cccc(NC(=O)Nc2ccc(Nc3ncnc4c3OCCN4)cc2)c1`, for which the GI50 in assay [1], in [2], in [3], in assay [4], in assay [5] and in [6] was over 10 µM throughout. Moreover, the GI50 in assay [7] and in [10] was over 10 µM each time. Further, the concentration for half-maximal inhibition (IC50) in [8] amounted to 6.81 µM; in assay [9] it was 5.29 µM.

In the case of `O=C(Nc1ccc(Nc2ncnc3c2OCCN3)cc1)Nc1ccc(C(F)(F)F)cc1`, the 50% growth inhibitory concentration (GI50) in [1] is 3.14 µM; in [2], over 10 µM; in assay [3] it was 6.65 µM; in assay [4], over 10 µM; in [5], 8.49 µM; in assay [6], over 10 µM. Moreover, the GI50 in assay [7] was 10 µM; in [10], 4.4 µM. Besides, the results for the IC50 in [8] and in assay [9] were 0.306 µM and 0.276 µM, respectively.

As to `Cc1cc(NC(=O)Nc2cc(C(C)(C)C)on2)ccc1Nc1ncnc2c1OCCN2`, the 50% growth inhibitory concentration (GI50) was 1.54 µM in assay [1]; 5.72 µM in assay [2]; 0.45 µM in assay [3]; 4.76 µM in assay [4]; 2.03 µM in assay [5]; over 10 µM in [6]. For the same compound, the 50% growth inhibitory concentration (GI50) in assay [7] was over 10 µM; in assay [10] it was 0.73 µM. Besides, the IC50 in [8] amounted to 0.05 µM; in [9], 0.044 µM.

For `CC(C)(C)c1cc(NC(=O)Nc2cccc(Nc3ncnc4c3OCCN4)c2)no1`, the GI50 in [1], in assay [2], in [3], in assay [4], in [5] and in [6] was over 10 µM throughout. The GI50 in assay [7] and in assay [10] was over 10 µM in each case. Besides, the IC50 amounted to 0.944 µM in [8] and 3.45 µM in assay [9].

As to `O=C(Nc1ccc(Nc2ncnc3c2OCCN3)cc1)Nc1cccs1`, the GI50 in assay [1], in assay [2], in assay [3], in assay [4], in assay [5] and in [6] was over 10 µM throughout. Moreover, the GI50 in assay [7] and in assay [10] was over 10 µM each time. In addition, the IC50 in assay [8] was over 10 µM; in [9], 8.64 µM.

Turning to `O=C(Nc1ccc(Nc2ncnc3c2OCCN3)cc1)Nc1ccc(Cl)c(C(F)(F)F)c1`, the GI50 in [1] is 2.29 µM; in assay [2] it was over 10 µM; in assay [3] it was 1.99 µM; in assay [4], 9.94 µM; in [5], over 10 µM; in assay [6], over 10 µM. The GI50 in [7] is over 10 µM; in assay [10], 3.07 µM. Also, the IC50 stood at 0.177 µM in assay [8] and 0.188 µM in assay [9].

As to `CC(C)(C)c1cc(NC(=O)Nc2ccc(Nc3ncnc4c3OCCN4)cc2)no1`, the GI50 in assay [1] is 0.11 µM; in [2], 4.41 µM; in [3], 0.08 µM; in [4], 1.62 µM; in assay [5], 1.36 µM; in assay [6], over 10 µM. Also, the GI50 in [7] is over 10 µM; in assay [10] it was 0.15 µM. Also, the half-maximal inhibitory concentration (IC50) was 0.01 µM in [8] and 0.034 µM in assay [9].

For the compound `O=C(Nc1ccc(Nc2ncnc3c2OCCN3)cc1)Nc1cccc2ccccc12`, the GI50 in assay [1], in [2], in assay [3], in assay [4], in assay [5] and in [6] was over 10 µM in each case. In addition, the GI50 in [7] and in [10] was over 10 µM in each case. The IC50 in assay [8] and in assay [9] was over 10 µM throughout.

(Values after ChEMBL document CHEMBL4765237, “Structural optimization and structure-activity relationship studies of N-phenyl-7,8-dihydro-6H-pyrimido[5,4-b][1,4]oxazin-4-amine derivatives as a new class of inhibitors of RET and its drug resistance mutants” (Eur J Med Chem, 2018).)
